Consider 3 compounds from PMC6033896, “Discovery of Mcl-1 inhibitors from integrated high throughput and virtual screening” (Scientific Reports, 2018).

The target of test [1] is T1, Mcl-1 protein (Homo sapiens, UniProt Q07820).
T1 construct: human Mcl-1 (residues 171–323); His tag (pHis-TEV vector) (N, cleaved yes); made in house; host or cells: E. coli BL21 (DE3)
Description: FP-based competitive binding assay with fluorescent labelled Bid BH3 peptide. The settings on record: for Ki: calculated from FP IC50; for IC50: competition with fluorescent Bid probe 2 nM, 20 nM Mcl-1 for purchased compounds, 10 nM for synthesized library. The protocol:
(§1) FP-based binding assays were developed and optimized to determine the binding affinities of inhibitors to the recombinant Mcl-1, Bcl-2, Bcl-xL, and Bfl-1, proteins. […] The fluorescent Bid probe was fixed at 2 nM for all assays, except for Bfl-1, where 1 nM was used. 5 μL of the tested compound in DMSO and 120 μL of protein/probe complex in the assay buffer were added to assay plates (Corning #3792), incubated at room temperature for 3 h, and the polarization values (mP) were measured at an excitation wavelength of 485 nm and an emission wavelength of 530 nm using the plate reader Synergy H1 Hybrid, BioTek. IC50 values were determined by nonlinear regression fitting of the competition curves (GraphPad Prism 6.0 Software). The Ki values were calculated as described previously.
(§2) 1. List of compounds purchased from vendors
(§3) Compound s 5, 6, 7, 8 and S3, S4, S5, S6 S7, S8, S9, S10, S17 were purchased from […]
(§4) Compound s 9, 10, 11 and S11, S12, S13 were purchased from I nterbioscreen […]
His-tagged proteins containing human Mcl-1 (residues 171–323), the isoform 2 construct of the human Bcl-2 [Bcl2-2 construct for protein production starts with the Bcl2 sequence of 1-34 a a, followed by the Bcl-xL seq uence of 35-50 aa, and ends with the Bcl-2 sequenc e of 92-202aa.], Bcl-xL (Human Bcl-xL protein, which has an internal deletion for the 45 -85 amino acid residues and a C -terminal truncation for the amino acid residues 212-233), and Bf l-1 (residues 1-151), were expres sed from the pHis -TEV vector (a modified pET vector) in E. coli BL21 (DE3) cells. Cells were grown at 37 °C in 2×YT containing antibiotics to an OD600 density of 1.5, 1 and 0.8 for Mcl-1, Bcl-xL and Bcl-2 respectively. Protein expression wa s induced by 0 .4 mM IPTG at 20 °C overnight for all proteins except for Bf l-1 which was e xpressed at 3 7 °C for four hours . Cells were lysed in 20 mM HEPES pH 7.5, 200 mM NaCl, 0.1% βME with Leupeptin/Aprotinin (Mcl-1), 25mM Tris pH 8.5, 200mM NaCl (Bcl-2), 50mM Tris pH 7.5, 200 mM NaCl (Bcl-xL) and 50 mM Tris pH 8, 500 mM NaCl, 0. 1% βME with Leupeptin/Aprotinin (Bf l-1). All […]
proteins were purified from the soluble fraction using Ni-NTA resin (QIAGEN), following the manufacturer’s instructions. For purification of TEV-cleaved protein, the amino-terminal His tag was cleaved by incubation with TEV protease and the protein was further purified by anion exchange (Source Q) and gel filtration chromatography (Superdex 75, Amersham Biosciences) in 20mM HEPES pH 7.0, 50 mM NaCl (Mcl-1), […]
NaCl, 0.1% βME (Bcl-xL) and 25 mM Tris pH 7.5, 150 mM NaCl, 25% Glycerol, 0.1% βME ( Bf l-1). His-tagged Mcl-1 protein was used for TR-FRET assay and HSQC-NMR.
His-TEV cleaved Mcl-1, Bcl-2, Bcl-xL, and Bf l-1 were used in fluorescent polarization and surface plasmon resonance binding assays.
Mutant Mcl-1 protein wa s prepared by the QuikChange site -directed mutagenesi s method (Stratagene) , where Arg263 was mutated to Ala. The R263A expression pla smid was transformed into Rosetta2 DE3 cells and purified by the same method as the wildtype protein. Cultures were grown to an OD 600 of 1. 5 at 37 °C in Terrific Broth, induced with 0. 4 mM IPTG, and express ed overnight at 20 °C. The follow-up purification was performed the same way as was for Mcl-1 wild-type recombinant

In test [2] the target is T2, Bcl-2 (Homo sapiens, UniProt P10415, DEL35-91/INS34DVEENRTEAPEGTESE).
T2 construct: His tag (pHis-TEV vector) (N, cleaved yes); made in house; host or cells: E. coli BL21 (DE3)
T2 sequence (P10415 with tags, fused parts or gaps INS34DVEEN/V35R/G36T/A37E/P40E/DEL42-87/P88T/V89E/P90S/P91E): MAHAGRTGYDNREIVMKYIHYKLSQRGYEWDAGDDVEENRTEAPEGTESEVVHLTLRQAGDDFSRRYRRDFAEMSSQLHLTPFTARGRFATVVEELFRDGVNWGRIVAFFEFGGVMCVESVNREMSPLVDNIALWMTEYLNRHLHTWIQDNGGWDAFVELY
Put plainly: FP-based competitive binding assay with FAM-Bid. The settings on record: FP. As to the method: as §1, §2, §3, §4
(§5) His-tagged proteins containing human Mcl-1 (residues 171–323), the isoform 2 construct of the human Bcl-2 [Bcl2-2 construct for protein production starts with the Bcl2 sequence of 1-34 a a, followed by the Bcl-xL seq uence of 35-50 aa, and ends with the Bcl-2 sequenc e of 92-202aa.], Bcl-xL (Human Bcl-xL protein, which has an internal deletion for the 45 -85 amino acid residues and a C -terminal truncation for the amino acid residues 212-233), and Bf l-1 (residues 1-151), were expres sed from the pHis -TEV vector (a modified pET vector) in E. coli BL21 (DE3) cells. Cells were grown at 37 °C in 2×YT containing antibiotics to an OD600 density of 1.5, 1 and 0.8 for Mcl-1, Bcl-xL and Bcl-2 respectively. Protein expression wa s induced by 0 .4 mM IPTG at 20 °C overnight for all proteins except for Bf l-1 which was e xpressed at 3 7 °C for four hours . Cells were lysed in 20 mM HEPES pH 7.5, 200 mM NaCl, 0.1% βME with Leupeptin/Aprotinin (Mcl-1), 25mM Tris pH 8.5, 200mM NaCl (Bcl-2), 50mM Tris pH 7.5, 200 mM NaCl (Bcl-xL) and 50 mM Tris pH 8, 500 mM NaCl, 0. 1% βME with Leupeptin/Aprotinin (Bf l-1). All

Test [3] has as its target T3, Bcl-xL (Homo sapiens, UniProt Q07817, DEL45-85).
T3 construct: His tag (pHis-TEV vector) (N, cleaved yes); made in house; host or cells: E. coli BL21 (DE3)
Put plainly: FP-based competitive binding assay with FAM-Bid. As to conditions: for IC50 / Ki: FP. The protocol: as §1, §2, §3, §4, §5

Test [4] addresses T4, Bfl-1 (Homo sapiens, UniProt Q16548).
T4 construct: Bf l-1 (residues 1-151); His tag (pHis-TEV vector) (N, cleaved yes); made in house; host or cells: E. coli BL21 (DE3)
T4 sequence (Q16548 1-151): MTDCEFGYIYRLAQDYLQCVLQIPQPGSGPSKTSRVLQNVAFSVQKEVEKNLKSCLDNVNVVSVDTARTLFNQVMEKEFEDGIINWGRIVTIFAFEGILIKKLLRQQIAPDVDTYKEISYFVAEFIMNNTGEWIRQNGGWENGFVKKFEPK
Put plainly: FP-based competitive binding assay with FAM-Bid. As to conditions: for IC50: Bfl-1. As to the method:
as §1, §2, §3, §4, §5

Where “and” joins values, the source holds several entries; their conditions need not be identical. Equal values may be shown once.

T3 sequence (Q07817 with tags, fused parts or gaps DEL45-85 limits assumed): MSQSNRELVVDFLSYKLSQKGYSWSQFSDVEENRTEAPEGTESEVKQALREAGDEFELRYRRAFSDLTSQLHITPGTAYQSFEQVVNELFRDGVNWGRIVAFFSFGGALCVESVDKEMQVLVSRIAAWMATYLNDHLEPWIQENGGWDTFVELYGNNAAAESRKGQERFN
T1 sequence (Q07820 171-323): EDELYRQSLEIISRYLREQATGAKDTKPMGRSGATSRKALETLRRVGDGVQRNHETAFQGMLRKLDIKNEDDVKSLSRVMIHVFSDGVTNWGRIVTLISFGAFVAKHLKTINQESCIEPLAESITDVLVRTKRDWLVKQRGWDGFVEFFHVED

`O=C(CSc1nnc(-c2ccco2)c(-c2ccco2)n1)Nc1ccccc1` [Compound 19]: the Ki (commonly the equilibrium dissociation constant of an inhibitor or competing ligand from its target) in test [1] is 3.2 ± 0.3 µM; in test [2] it was more than 25 µM; in test [3], more than 20 µM; in test [4] (FP) it was 4.9 µM. In addition, the IC50 (in general, the concentration at which inhibition is half-maximal) in test [1] was 13 µM and 13.8 µM; in test [2], more than 100 µM; in test [3], more than 100 µM; in test [4] it was 35.6 ± 8.6 µM. Moreover, the “binding to Bfl-1 compared with Mcl-1” value in test [4] (FP) is recorded as “lower binding to Bfl-1 in comparison to Mcl-1”.

Consider `O=C(CSc1nnc(-c2ccco2)c(-c2ccco2)n1)Nc1cccc(C(F)(F)F)c1` [Compound 39], for which the Ki in test [1] was 1.2 ± 0.1 µM; in test [2], more than 25 µM; in test [3], more than 20 µM; in test [4] (FP), 10.4 µM. Also, the IC50 was 5.1 ± 0.5 µM in test [1], more than 100 µM in test [2], more than 100 µM in test [3] and 75.9 ± 6.2 µM in test [4]. The “fold lower binding affinity to Bcl-xL than to Mcl-1” value in test [3] (ratio of Ki) is listed as more than 17 fold. In addition, the “fold lower binding affinity to Bfl-1 than to Mcl-1” value in test [4] (ratio of Ki) worked out at 8 fold.

On to `c1ccc(CCCCSc2nnc(-c3ccco3)c(-c3ccco3)n2)cc1` [Compound 44], for which the Ki was 0.3 ± 0.1 µM in test [1], more than 25 µM in test [2], more than 20 µM in test [3] and 0.7 ± 0.1 µM in test [4] (FP). For the same compound, the IC50 in test [1] was 1.4 ± 0.2 µM; in test [2] it was more than 100 µM; in test [3], more than 100 µM; in test [4], 5.1 ± 0.1 µM.
